# Experimental data published in patent US20230382904A1, “SUBSTITUTED 4-([1,2,4]TRIAZOLO[1,5-a]PYRIDIN-6-YL)THIOPHENE-2-CARBOXAMIDE DERIVATIVES AND USE THEREOF” (The Johns Hopkins University, priority 2020, published 2023).
# Columns and labels:
# [1] = target: LZK (Homo sapiens (Human), UniProt O43283); assay: LZK biochemical assay (TR-FRET, MKK7 phosphorylation)
# Protocol: LZK assay is a biochemical assay format designed to screen for inhibitors of LZK. Enzymatic activity of LZK was measured by monitoring phosphorylation of the physiological substrate MKK7 (MAP2K7, Dual specificity mitogen-activated protein kinase kinase 7). Phosphorylation was detected by a TR-FRET system whereby His-tagged MKK7 was labeled by a XL665-labeled anti-His antibody (FRET acceptor, emission 665 nm). LZK phosphorylates MKK7 at T275/S277 which were detected by an Eu-labeled anti-phospho-MKK7 (T275/S277) antibody (FRET donor, excitation 340 nm). Phosphorylation of MKK7 results in an increased TR-FRET signal (Ratio XL665-channel/Eu-channel) and inhibition of enzymatic activity of LZK decreases the TR-FRET signal.
# Assay Protocol for 384 low volume MTP format: 1 μl of test compound was pipetted into test plate; +5 μl LZK solution (10 nM LZK, catalytic domain, Carna Biosiences in assay buffer); +5 μl substrate solution (15 nM MKK7, LDB; 15 μM ATP, in assay buffer); 90 min incubation at RT; +5 μl detection mix (20 nM XL665-labeled anti-His antibody, Cisbio; 0.4 nM Eu-labeled anti-phospho-MKK7 (T275/S277), Cisbio/Millipore in detection buffer), 16 h incubation at 32° C.; endpoint measurement BMG (HTRF).
# (§1) All indicated concentrations final concentrations.
# Assay buffer (384 format): 50 mM Hepes pH 7.5, 10 mM MgCl2, 1 mM EGTA, 1 mM DTT, 0.01% Triton X-100, 0.01% BSA, 1:500 Smart Block.
# (§2) Detection buffer: 25 mM Tris/HCl pH 7.5, 100 mM EDTA, 100 mM NaCl, 200 mM KF, 0.01% Tween 20, 1:500 Smart Block.
# [2] = target: DLK (Homo sapiens (Human), UniProt Q12852); assay: DLK biochemical assay (TR-FRET, MKK7 phosphorylation)
# Chain of DLK (Q12852 1-520): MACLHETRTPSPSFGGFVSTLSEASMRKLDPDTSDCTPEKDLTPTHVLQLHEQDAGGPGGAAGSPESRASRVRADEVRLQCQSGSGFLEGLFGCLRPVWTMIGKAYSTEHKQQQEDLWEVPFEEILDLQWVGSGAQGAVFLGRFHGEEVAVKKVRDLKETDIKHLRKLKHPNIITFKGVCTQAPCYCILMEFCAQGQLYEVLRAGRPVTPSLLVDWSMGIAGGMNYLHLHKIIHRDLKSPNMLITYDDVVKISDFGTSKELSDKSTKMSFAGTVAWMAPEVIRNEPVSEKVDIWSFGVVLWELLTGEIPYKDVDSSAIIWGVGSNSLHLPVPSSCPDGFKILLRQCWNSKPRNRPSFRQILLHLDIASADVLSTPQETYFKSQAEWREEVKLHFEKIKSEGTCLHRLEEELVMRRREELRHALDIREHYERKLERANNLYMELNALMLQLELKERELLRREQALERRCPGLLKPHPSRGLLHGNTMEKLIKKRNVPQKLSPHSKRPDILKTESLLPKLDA
# Protocol: DLK assay is a biochemical assay format designed to screen for inhibitors of DLK. Enzymatic activity of DLK was measured by monitoring phosphorylation of the physiological substrate MKK7 (MAP2K7, Dual specificity mitogen-activated protein kinase kinase 7). Phosphorylation was detected by a TR-FRET system whereby His-tagged MKK7 was labeled by a XL665-labeled anti-His antibody (FRET acceptor, emission 665 nm). DLK phosphorylates MKK7 at T275/S277, which was detected by an Eu-labeled anti-phospho-MKK7 (T275/S277) antibody (F RET donor, excitation 340 nm). Phosphorylation of MKK7 results in an increased TR-FRET signal (Ratio XL665-channel/Eu-channel) and inhibition of enzymatic activity of DLK decreases the TR-FRET signal.
# Assay Protocol for 1536 MTP format: test compounds were predispensed (60 nl) in test plates; +3 μl DLK solution (10 nM DLK, catalytic domain, Carna Biosiences, 0.6 mM DTT in assay buffer); +2 μl substrate solution (15 nM MKK7, LDB; 60 μM ATP; 0.4 mM DTT in assay buffer); 90 min incubation at RT; +2 μl detection mix (5 nM XL665-labeled anti-His antibody, Cisbio; 0.1 nM Eu-labeled anti-phospho-MKK7 (T275/S277), Cisbio/Millipore in detection buffer); 16 h incubation at 37° C.; endpoint measurement BMG (HTRF).
# Assay Protocol for 384 low volume MTP format: 1 μl of test compounds were pipetted into test plate; +5 μl DLK solution (10 nM DLK, catalytic domain, Carna Biosiences in assay buffer); +5 μl substrate solution (15 nM MKK7, LDB; 60 μM ATP, in assay buffer); 90 min incubation at RT; +9 μl detection mix (20 nM XL665-labeled anti-His antibody, Cisbio; 0.4 nM Eu-labeled anti-phospho-MKK7 (T275/S277), Cisbio/Millipore in detection buffer); 16 h incubation at 4° C.; endpoint measurement BMG (HTRF).
# as §1
# Assay buffer (384 format): 50 mM Hepes pH 7.5, 10 mM MgCl2, 1 mM EGTA, 1 mM DTT, 0,01% Triton X-100, 0.01% BSA, 1:500 Smart Block.
# as §2
# Chain of LZK (O43283 168-409): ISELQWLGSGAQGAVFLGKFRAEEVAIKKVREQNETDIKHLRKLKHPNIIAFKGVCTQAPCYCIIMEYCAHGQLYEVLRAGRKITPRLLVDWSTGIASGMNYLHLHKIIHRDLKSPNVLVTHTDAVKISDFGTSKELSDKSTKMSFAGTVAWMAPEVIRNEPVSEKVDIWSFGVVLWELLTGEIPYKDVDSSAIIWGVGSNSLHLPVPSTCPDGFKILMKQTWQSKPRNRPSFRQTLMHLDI
Structure (SMILES),IC50 [1] [nM],IC50 [2] [nM]
CCn1ccc(C(C)NC(=O)c2cc(-c3ccc4nc(N)nn4c3)cs2)n1 (stereo not drawn) [Compound 331],13000,910
Cc1c(-c2ccc3nc(N)nn3c2)csc1C(=O)N[C@@H](C)c1ccc(F)cc1 [Compound 351],20000,6400
C[C@H](NC(=O)c1cc(-c2ccc3nc(N)nn3c2)c(F)s1)c1ccc(F)cc1 [Compound 362],23000,8200
CC(C)NC(=O)c1cc(-c2csc(C(=O)NC3CCCCC3)c2)cc2nc(N)nn12 [Compound 150],490,46
NC(=O)c1cc(-c2ccc3nc(N)nn3c2)cs1 [Compound 183],,4300
COC[C@H](NC(=O)c1cc(-c2ccc3nc(N)nn3c2)cs1)c1ccccc1 [Compound 322],1400,120
COc1cc(OC)nc(CNC(=O)c2cc(-c3ccc4nc(N)nn4c3)cs2)n1 [Compound 258],,7000
Nc1nc2ccc(-c3csc(C(=O)NC(c4ccc(F)cc4)C(F)(F)F)c3)cn2n1 (stereo not drawn) [Compound 336],> 30000,290
Nc1nc2ccc(-c3csc(C(=O)NCC4COCCO4)c3)cn2n1 (stereo not drawn) [Compound 209],> 30000,2500
Nc1nc2ccc(-c3csc(C(=O)NCC4CCOC4)c3)cn2n1 (stereo not drawn) [Compound 210],,2700
CN1CCC(CNC(=O)c2cc(-c3ccc4nc(N)nn4c3)cs2)CC1 [Compound 229],,7600
CCCNc1nc2ccc(-c3csc(C(=O)NCc4cccc(OC)c4)c3)cn2n1 [Compound 253],,> 30000
Cc1nc(CNC(=O)c2cc(-c3ccc4nc(N)nn4c3)cs2)cs1 [Compound 217],,8600
COC(C)CN(C)C(=O)c1cc(-c2ccc3nc(N)nn3c2)cs1 (stereo not drawn) [Compound 164],,28000
CCN(CC)CCNc1nc2ccc(-c3csc(C(=O)NCc4cccc(OC)c4)c3)cn2n1 [Compound 266],,> 30000
CC(C)(C)OC(=O)N1CCCC(NC(=O)c2cc(-c3ccc4nc(N)nn4c3)cs2)C1 (stereo not drawn) [Compound 179],,3400
CCn1cc(CNC(=O)c2cc(-c3ccc4nc(N)nn4c3)cs2)cn1 [Compound 218],,8700
Nc1nc2ccc(-c3csc(C(=O)NCC4CCCCO4)c3)cn2n1 (stereo not drawn) [Compound 208],,3000
COc1cccc(CNC(=O)c2cc(-c3ccc4nc(NCCN5CCOCC5)nn4c3)cs2)c1 [Compound 262],,> 30000
Nc1nc2ccc(-c3csc(C(=O)N4CC5(COC5)C4)c3)cn2n1 [Compound 163],,12000
Nc1nc2ccc(-c3csc(C(=O)Nc4ccccc4)c3)cn2n1 [Compound 259],,2900
CC1CCCN(C(=O)c2cc(-c3ccc4nc(N)nn4c3)cs2)C1 (stereo not drawn) [Compound 167],,10000
COc1ccc2c(c1)CN(C(=O)c1cc(-c3ccc4nc(N)nn4c3)cs1)C2 [Compound 237],,12000
Cn1cncc1CNC(=O)c1cc(-c2ccc3nc(N)nn3c2)cs1 [Compound 252],,3900
Nc1nc2ccc(-c3csc(C(=O)NCC4CCCO4)c3)cn2n1 (stereo not drawn) [Compound 189],,4700

# Other lines, results leading:
IC50 [1] [nM],IC50 [2] [nM],Structure (SMILES)
77,3.5,CC[C@H](NC(=O)c1cc(-c2cc(C(=O)N[C@H]3CCOC3)n3nc(N)nc3c2)cs1)c1ccc(F)cc1 [Compound 162]
46,5.5,COC[C@H](NC(=O)c1cc(-c2cc(C(=O)N[C@H]3CCOC3)c3nc(N)nn3c2)cs1)c1ccccc1 [Compound 107]
2200,140,CNC(=O)c1cc(-c2csc(C(=O)NCc3cccc(OC)c3)c2)cn2nc(N)nc12 [Compound 8]
17000,520,Nc1nc2ccc(-c3csc(C(=O)NCc4ccc(CN5CCOCC5)cc4)c3)cn2n1 [Compound 342]
99,58,CC(NC(=O)c1cc(-c2csc(C(=O)NCc3ccc(F)cc3)c2)cn2nc(N)nc12)C(F)(F)F (stereo not drawn) [Compound 27]
> 30000,3400,CNS(=O)(=O)c1cc(-c2csc(C(=O)N[C@@H](C)c3ccc(F)cc3)c2)cn2nc(N)nc12 [Compound 386]
> 30000,750,COc1cccc(CCNC(=O)c2cc(-c3ccc4nc(N)nn4c3)cs2)c1 [Compound 282]
1200,360,Nc1nc2c(C(=O)NC3CC3)cc(-c3csc(C(=O)NCc4ccc(F)cc4)c3)cn2n1 [Compound 46]
505,24,CC(C)NC(=O)c1cc(-c2csc(C(=O)NC3CCCc4cc(F)ccc43)c2)cn2nc(N)nc12 (stereo not drawn) [Compound 119]
> 30000,20000,CN(C)C(=O)c1cc(-c2csc(C(=O)NCc3ccc(F)cc3)c2)cn2nc(N)nc12 [Compound 1]
14000,580,Nc1nc2ccc(-c3csc(C(=O)NCc4ccsc4)c3)cn2n1 [Compound 273]
1500,63,CC(C)NC(=O)c1cc(-c2csc(C(=O)NC3CC(C)(C)Oc4ccccc43)c2)cn2nc(N)nc12 (stereo not drawn) [Compound 131]
1100,73,CCc1nnc(-c2cc(-c3csc(C(=O)N[C@@H](C)c4ccc(F)cc4)c3)cn3nc(N)nc23)s1 [Compound 397]
,4100,Cn1cc(CNC(=O)c2cc(-c3ccc4nc(N)nn4c3)cs2)cn1 [Compound 244]
,35,"CC(C)NC(=O)c1cc(-c2csc(C(=O)NCc3ccc(F)cc3)c2)cn2nc(N)nc12 [Compound 4, 2-Amino-6-(5-{[(4-fluorophenyl)methyl]carbamoyl}thiophen-3-yl)-N-(propan-2-yl)[1,2,4]triazolo[1,5-a]pyridine-8-carboxamide]"
,7600,Nc1nc2ccc(-c3csc(C(=O)NC4CCOC4)c3)cn2n1 (stereo not drawn) [Compound 186]
,5200,CN(Cc1ccc(F)cc1)C(=O)c1cc(-c2ccc3nc(N)nn3c2)cs1 [Compound 166]
,18,Nc1nc2c(C(=O)N[C@H]3CCOC3)cc(-c3csc(C(=O)NCc4ccc(F)cc4)c3)cn2n1 [Compound 101]
,34,COc1cccc(CNC(=O)c2cc(-c3cc(C(=O)NC(C)C)c4nc(N)nn4c3)cs2)c1 [Compound 3]
,14,CC(C)NC(=O)c1cc(-c2csc(C(=O)N[C@H](C)c3ccc(F)cc3)c2)cn2nc(N)nc12 [Compound 96]
,260,CC(C)c1nnc(-c2cc(-c3csc(C(=O)NCc4ccc(F)cc4)c3)cn3nc(N)nc23)s1 [Compound 393]
,11000,COc1cccc(CNC(=O)c2cc(-c3cc(C(=O)NC(C)C)c4ncnn4c3)cs2)c1 [Compound 390]
,3500,CC[C@H]1CC[C@H](NC(=O)c2cc(-c3ccc4nc(N)nn4c3)cs2)CC1 [Compound 178]
,8.65,"CC(C)NC(=O)c1cc(-c2csc(C(=O)N[C@@H](C)c3ccc(F)cc3)c2)cn2nc(N)nc12 [Compound 19, 2-Amino-6-(5-{[(1S)-1-(4-fluorophenyl)ethyl]carbamoyl}thiophen-3-yl)-N-(propan-2-yl)[1,2,4]triazolo[1,5-a]pyridine-8-carboxamide]"
,160,C[C@H](NC(=O)c1cc(-c2cc(C(=O)NC3COC3)c3nc(N)nn3c2)cs1)c1ccc(F)cc1 [Compound 73]
,6.45,C[C@H](NC(=O)c1cc(-c2cc(C(=O)NC(C)(C)CO)c3nc(N)nn3c2)cs1)c1ccc(F)cc1 [Compound 78]
,2000,CC(C)NC(=O)c1cc(-c2csc(C(=O)N[C@@H](C)c3ccc(F)cc3)c2)cn2ncnc12 [Compound 391]
